Laboratory results reported in patent US8716473B2, “Substituted benzotriazines and quinoxalines as inhibitors of P7OS6 kinase” (Sentinel Oncology Limited, priority 2009, dated 2014).
Structures can show the parent of a compound that is named as a salt.

Columns and labels:
p70S6K (h) = p70S6K (h) (Homo sapiens, UniProt P23443); experiment: Determination of p70S6 inhibitory activity (radiometric 33P-ATP filter assay); assay type: biochemical; details: 40 min at room temperature, read-out: IC50 against P70S6 kinase
Protocol: The ability of compounds of the invention to inhibit P70S6 kinase was determined using the protocol below.
• 20 mM MOPS, 1 mM EDTA, 0.01% Brij-35, 5% Glycerol, 0.1% b-mercaptoethanol, 1 mg/mL BSA Method: • p70S6K (h)
In a final reaction volume of 25 μL, p70S6K (h) (5-10 mU) is incubated with 8 mM MOPS pH 7.0, 0.2 mM EDTA, 100 μM KKRNRTLTV, 10 mM Mg acetate and [γ-33P-ATP] (specific activity approx. 500 cpm/pmol, concentration as required). The reaction is initiated by the addition of the MgATP mix. After incubation for 40 minutes at room temperature, the reaction is stopped by the addition of 5 μL of a 3% phosphoric acid solution. 10 μL of the reaction mixture is then spotted onto a P30 filtermat and washed three times for 5 minutes in 75 mM phosphoric acid and once in methanol prior to drying and scintillation counting.

[1] = test system: phosphorylation of S6 Ser235/236 in MCF-7 cells; experiment: Inhibition of P70S6K activity in whole cells: phospho-S6 ELISA in MCF-7 cells; assay type: cell-based; details: Homo sapiens, MCF7, 2 h incubation, 1% FBS
Protocol: The following assay provides IC50 values for inhibition of P70S6K activity in a whole cell assay by determining effects on the phosphorylation of S6^Ser235/236 in MCF-7 cells by ELISA.
The following protocol was used: • 1) MCF-7 cells were seeded in 96-well plates at a density of 7×10^3 cells per well and allowed to adhere for 6 h in media containing 10% FBS. • 2) The full serum media was replaced and cells incubated overnight in media containing 1% FBS, prior to addition of test compounds. • 3) Test compounds were prepared from 10 mM or 5 mM (BEZ-235) DMSO stocks to give final concentration ranges as indicated on graphs. DMSO was constant at a final concentration of 1%. • 4) Test compounds were incubated with cells in duplicate for 2 h at 37° C./5% CO2 in a humidified atmosphere. • 5) The media was removed and cells were lysed by freeze-thawing in cell lysis buffer. • 6) Detection of phosphorylated S6Ser235/236 was then carried out using a PathScan ELISA kit (Cell Signaling Technology #7205). • 7) Lysates were diluted 1:1 with sample diluent before being applied to wells coated with an antibody against phosphorylated-S6 protein. • 8) The ELISA was then performed as stated in the manufacturers' instructions. • 9) The raw data were normalised to control values and analysed using a 4-parameter logistic equation in GraphPad Prism.

MCF-7 cells = experiment: MCF-7 proliferation assay (Alamar blue); assay type: cell-based; details: Homo sapiens, MCF7, 72 h incubation, read-out: IC50 for inhibition of cell growth
Protocol: The following assay was used to determine the ability of test compounds to inhibit cell growth.
The following protocol was used: • 1) MCF-7 cells were seeded in 96-well plates at 5000 cells per well and allowed to adhere overnight prior to addition of compound or vehicle control. • 2) Test compounds were prepared from 10 mM DMSO stocks to give a final concentration range of 100 μM, 30 μM, 10 μM, 3 μM, 1 μM, 0.3 μM, 0.1 μM, 0.03 μM, 0.01 μM and vehicle control. The DMSO content was constant at 1%. • 3) Test compounds were incubated with the cells for 72 h at 37° C. 5% CO2 in a humidified atmosphere. • 4) Alamar blue 10% (v/v) was then added and incubated for a further 6 h, and fluorescent product detected using the BMG FLUOstar plate reader. • 5) Data were analysed using a 4-parameter logistic equation in Graph Pad Prism.

Sequence of p70S6K (h) (P23443 whole entry): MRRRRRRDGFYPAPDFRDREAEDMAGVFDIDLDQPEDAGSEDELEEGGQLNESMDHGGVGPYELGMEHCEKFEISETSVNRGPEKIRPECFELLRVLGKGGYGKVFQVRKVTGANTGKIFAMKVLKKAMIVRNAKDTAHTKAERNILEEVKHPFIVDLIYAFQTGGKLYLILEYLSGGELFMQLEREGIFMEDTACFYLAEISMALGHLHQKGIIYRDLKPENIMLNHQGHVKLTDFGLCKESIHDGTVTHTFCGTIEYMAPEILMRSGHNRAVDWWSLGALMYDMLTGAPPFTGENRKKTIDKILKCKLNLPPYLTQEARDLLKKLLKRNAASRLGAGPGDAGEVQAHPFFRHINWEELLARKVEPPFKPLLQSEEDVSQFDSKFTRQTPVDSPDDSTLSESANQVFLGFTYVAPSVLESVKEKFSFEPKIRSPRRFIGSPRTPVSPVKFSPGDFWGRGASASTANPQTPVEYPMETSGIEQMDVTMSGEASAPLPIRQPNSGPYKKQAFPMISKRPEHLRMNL

Compound | IC50 (p70S6K (h)) [µM] | IC50 [1] [µM] | IC50 (MCF-7 cells) [µM]
c1ccc(CNc2cnc3cc(-c4cn[nH]c4)ccc3n2)cc1 [Example 1, Benzyl-[6-(1H-pyrazol-4-yl)-quinoxalin-2-yl]-amine] | < 0.1 | < 5 | < 10
CN(Cc1ccccc1)c1cnc2cc(-c3cn[nH]c3)ccc2n1 [Example 2, Benzyl-methyl-[6-(1H-pyrazol-4-yl)-quinoxalin-2-yl]-amine hydrochloride] | < 0.1 | < 5 | < 20
OCCN(Cc1ccccc1)c1cnc2cc(-c3cn[nH]c3)ccc2n1 [Example 3, 2-{Benzyl-[6-(1H-pyrazol-4-yl)-quinoxalin-2-yl]-amino}-ethanol] | < 0.1 | < 5 | < 20
CN1CCN(c2cccc(CNc3cnc4cc(-c5cn[nH]c5)ccc4n3)c2)CC1 [Example 6, [3-(4-Methyl-piperazin-1-yl)-benzyl]-[6-(1H-pyrazol-4-yl)-quinoxalin-2-yl]-amine hydrochloride] | < 1 | < 5 | < 20
c1cc(CNc2cnc3cc(-c4cn[nH]c4)ccc3n2)cc(N2CCOCC2)c1 [Example 7, (3-Morpholin-4-yl-benzyl)-[6-(1H-pyrazol-4-yl)-quinoxalin-2-yl]-amine hydrochloride] | < 5 | < 5 | < 20
Clc1ccc(CNc2cnc3cc(-c4cn[nH]c4)ccc3n2)cc1 [Example 8, (4-Chloro-benzyl)-[6-(1H-pyrazol-4-yl)-quinoxalin-2-yl]-amine] | < 0.1 | < 5 | < 20
Clc1cccc(CNc2cnc3cc(-c4cn[nH]c4)ccc3n2)c1 [Example 9, (3-Chloro-benzyl)-[6-(1H-pyrazol-4-yl)-quinoxalin-2-yl]-amine] | < 0.1 | < 1 | < 20
Fc1ccc(CNc2cnc3cc(-c4cn[nH]c4)ccc3n2)cc1 [Example 11, (4-Fluoro-benzyl)-[6-(1H-pyrazol-4-yl)-quinoxalin-2-yl]-amine hydrochloride] | < 0.1 | < 5 | < 10
Fc1cccc(CNc2cnc3cc(-c4cn[nH]c4)ccc3n2)c1 [Example 12, (3-Fluoro-benzyl)-[6-(1H-pyrazol-4-yl)-quinoxalin-2-yl]-amine hydrochloride] | < 0.1 | < 5 | < 10
Fc1ccccc1CNc1cnc2cc(-c3cn[nH]c3)ccc2n1 [Example 13, (2-Fluoro-benzyl)-[6-(1H-pyrazol-4-yl)-quinoxalin-2-yl]-amine hydrochloride] | < 1 |  | < 20
COc1ccc(CNc2cnc3cc(-c4cn[nH]c4)ccc3n2)cc1 [Example 17, (4-Methoxy-benzyl)-[6-(1H-pyrazol-4-yl)-quinoxalin-2-yl]-amine] | < 1 | < 5 | < 10
COc1cccc(CNc2cnc3cc(-c4cn[nH]c4)ccc3n2)c1 [Example 18, (3-Methoxy-benzyl)-[6-(1H-pyrazol-4-yl)-quinoxalin-2-yl]-amine] | < 0.1 | < 1 | < 10
CN(Cc1ccc(F)cc1)c1cnc2cc(-c3cn[nH]c3)ccc2n1 [Example 21, (4-Fluoro-benzyl)-methyl-[6-(1H-pyrazol-4-yl)-quinoxalin-2-yl]-amine] | < 0.1 | < 5 | < 50
c1ccc(CCNc2cnc3cc(-c4cn[nH]c4)ccc3n2)cc1 [Example 25, Phenethyl-[6-(1H-pyrazol-4-yl)-quinoxalin-2-yl]-amine hydrochloride] | < 0.1 | < 5 | < 20
CCN(Cc1ccccc1)c1cnc2cc(-c3cn[nH]c3)ccc2n1 [Example 26, Benzyl-ethyl-[6-(1H-pyrazol-4-yl)-quinoxalin-2-yl]-amine] | < 0.1 |  | < 50
COc1cccc(CN(C)c2cnc3cc(-c4cn[nH]c4)ccc3n2)c1 [Example 27, (3-Methoxy-benzyl)-methyl-[6-(1H-pyrazol-4-yl)-quinoxalin-2-yl]-amine] | < 0.1 | < 1 | < 50
CN(Cc1cccc(F)c1)c1cnc2cc(-c3cn[nH]c3)ccc2n1 [Example 28, (3-Fluoro-benzyl)-methyl-[6-(1H-pyrazol-4-yl)-quinoxalin-2-yl]-amine] | < 0.1 | < 1 | < 10
CN(C)CCOc1cccc(CNc2cnc3cc(-c4cn[nH]c4)ccc3n2)c1 [Example 31, [3-(2-Dimethylamino-ethoxy)-benzyl]-[6-(1H-pyrazol-4-yl)-quinoxalin-2-yl]-amine hydrochloride] | < 5 |  | < 20
Fc1ccc(CNc2cnc3cc(-c4cn[nH]c4)ccc3n2)cc1F [Example 32, (3,4-Difluoro-benzyl)-[6-(1H-pyrazol-4-yl)-quinoxalin-2-yl]-amine] | < 0.1 | < 5 | < 50
C[C@@H](Nc1cnc2cc(-c3cn[nH]c3)ccc2n1)c1ccccc1 [Example 33, ((R)-1-Phenyl-ethyl)-[6-(1H-pyrazol-4-yl)-quinoxalin-2-yl]-amine] | < 0.1 | < 1 | < 20
c1cc(CNc2cnc3cc(-c4cn[nH]c4)ccc3n2)cs1 [Example 38, [6-(1H-Pyrazol-4-yl)-quinoxalin-2-yl]-thiophen-3-ylmethyl-amine] | < 0.1 |  | < 10
Cc1cccc(CNc2cnc3cc(-c4cn[nH]c4)ccc3n2)c1 [Example 41, (3-Methyl-benzyl)-[6-(1H-pyrazol-4-yl)-quinoxalin-2-yl]-amine] | < 0.1 | < 1 | < 10
COc1cccc([C@@H](C)Nc2cnc3cc(-c4cn[nH]c4)ccc3n2)c1 [Example 50, [(R)-1-(3-Methoxy-phenyl)-ethyl]-[6-(1H-pyrazol-4-yl)-quinoxalin-2-yl]-amine hydrochloride] | < 0.1 | < 1 | < 10
